Test results: patent US4065616A, “Processes for production of a 1-N-(α-hydroxy-.PHI.-amino alkanoyl)-3-deoxy-5-O-pentafuranosyl neamine and new compounds produced by the same processes” (Zaidan Hojin Biseibutsu Kagaku Kenkyu Kai, priority 1975, dated 1977)
Values after ≈ are worked out from the molar mass of the structure shown.

What was measured:
[1] = test system: kanamycin-resistant bacteria; conditions: in words, prior work; cited from earlier work
Bacillus subtilis B-558 = experiment: M.I.C. by standard serial dilution method; format: cell-based; conditions: B558, B. subtilis B-558, nutrient agar, 37° C, 18 hours, read-out: minimum inhibitory concentration (M.I.C.)
Description: (§1) These particular compounds, that is, 1-n-(α-hydroxy-ω-aminoalkanoyl)-3'-deoxy-5-O-pentofuranosylneamines according to the aforesaid general formula (I) have useful antibacterial activity against a wide variety of bacteria, including gram-negative bacteria and gram-positive bacteria. The minimum inhibitory concentration (M.I.C.) (mcg/ml) of these compounds against various organisms was determined by a standard serial dilution method at an incubation temperature of 37° C, the estimation being made after 18 hours incubation or each test organism, except that the incubation time was 48 hours for Mycobacterium smegmatis. The incubation medium used was nutrient agar.

[2] = test system: Escherichia coli K-12 JR66/W677; experiment: M.I.C. by standard serial dilution method; format: cell-based; conditions: K12JR66/W677, 18 h, read-out: minimum inhibitory concentration (M.I.C.)
Description: as §1

[3] = test system: Escherichia coli K-12 LA 290 R55; experiment: M.I.C. by standard serial dilution method; format: cell-based; conditions: K12LA290R55, 18 h, read-out: minimum inhibitory concentration (M.I.C.)
Description: as §1

[4] = test system: Escherichia coli K-12 LA 290 R56; experiment: M.I.C. by standard serial dilution method; format: cell-based; conditions: K12LA290R56, 18 h, read-out: minimum inhibitory concentration (M.I.C.)
Description: as §1

[5] = test system: Escherichia coli K-12 LA 290 R64; experiment: M.I.C. by standard serial dilution method; format: cell-based; conditions: K12LA290R64, 18 h, read-out: minimum inhibitory concentration (M.I.C.)
Description: as §1

[6] = test system: Escherichia coli K-12 ML 1410; experiment: M.I.C. by standard serial dilution method; format: cell-based; conditions: K12ML1410, E. coli K-12 ML 1410, nutrient agar, 37° C, 18 hours, read-out: minimum inhibitory concentration (M.I.C.)
Description: as §1

[7] = test system: Escherichia coli K-12 ML 1629; experiment: M.I.C. by standard serial dilution method; format: cell-based; conditions: K12ML1629, E. coli K-12 ML 1629, nutrient agar, 37° C, 18 hours, read-out: minimum inhibitory concentration (M.I.C.)
Description: as §1

[8] = test system: Escherichia coli K-12 ML 1630; experiment: M.I.C. by standard serial dilution method; format: cell-based; conditions: K12ML1630, E. coli K-12 ML 1630, nutrient agar, 37° C, 18 hours, read-out: minimum inhibitory concentration (M.I.C.)
Description: as §1

[9] = test system: Escherichia coli K-12 W677; experiment: M.I.C. by standard serial dilution method; format: cell-based; conditions: K12W677, E. coli K-12 W677, nutrient agar, 37° C, 18 hours, read-out: minimum inhibitory concentration (M.I.C.)
Description: as §1

Escherichia coli K-12 = experiment: M.I.C. by standard serial dilution method; format: cell-based; conditions: K12, E. coli K-12, nutrient agar, 37° C, 18 hours, read-out: minimum inhibitory concentration (M.I.C.)
Description: as §1

Escherichia coli NIHJ = experiment: M.I.C. by standard serial dilution method; format: cell-based; conditions: E. coli NIHJ, nutrient agar, 37° C, 18 hours, read-out: minimum inhibitory concentration (M.I.C.)
Description: as §1

[10] = test system: Klebsiella pneumoniae PCI 602; experiment: M.I.C. by standard serial dilution method; format: cell-based; conditions: PCI602, K. pneumoniae PCI 602, nutrient agar, 37° C, 18 hours, read-out: minimum inhibitory concentration (M.I.C.)
Description: as §1

[11] = test system: Klebsiella pneumoniae Type 22, No. 3038; experiment: M.I.C. by standard serial dilution method; format: cell-based; conditions: K. pneumoniae Type 22, No. 3038, nutrient agar, 37° C, 18 hours, read-out: minimum inhibitory concentration (M.I.C.)
Description: as §1

[12] = test system: Mycobacterium smegmatis ATCC 607; experiment: M.I.C. by standard serial dilution method; format: cell-based; conditions: Mycolicibacterium smegmatis, ATCC607, nutrient agar, 37° C, 48 hours, read-out: minimum inhibitory concentration (M.I.C.)
Description: as §1

Proteus rettgeri GN 311 = experiment: M.I.C. by standard serial dilution method; format: cell-based; conditions: Providencia rettgeri, GN311, nutrient agar, 37° C, 18 hours, read-out: minimum inhibitory concentration (M.I.C.)
Description: as §1

Proteus rettgeri GN 466 = experiment: M.I.C. by standard serial dilution method; format: cell-based; conditions: Providencia rettgeri, GN466; Proteus rettgeri GN 466; nutrient agar, 37° C, 18 hours; read-out: minimum inhibitory concentration (M.I.C.)
Description: as §1

[13] = test system: Pseudomonas aeruginosa 99; experiment: M.I.C. by standard serial dilution method; format: cell-based; conditions: P. aeruginosa 99, nutrient agar, 37° C, 18 hours, read-out: minimum inhibitory concentration (M.I.C.)
Description: as §1

[14] = test system: Pseudomonas aeruginosa A3; experiment: M.I.C. by standard serial dilution method; format: cell-based; conditions: P. aeruginosa A3, nutrient agar, 37° C, 18 hours, read-out: minimum inhibitory concentration (M.I.C.)
Description: as §1

[15] = test system: Pseudomonas aeruginosa GN 315; experiment: M.I.C. by standard serial dilution method; format: cell-based; conditions: GN315, P. aeruginosa GN 315, nutrient agar, 37° C, 18 hours, read-out: minimum inhibitory concentration (M.I.C.)
Description: as §1

[16] = test system: Pseudomonas aeruginosa No. 12; experiment: M.I.C. by standard serial dilution method; format: cell-based; conditions: P. aeruginosa No. 12, nutrient agar, 37° C, 18 hours, read-out: minimum inhibitory concentration (M.I.C.)
Description: as §1

[17] = test system: Pseudomonas aeruginosa TI-13; experiment: M.I.C. by standard serial dilution method; format: cell-based; conditions: TI13, P. aeruginosa TI-13, nutrient agar, 37° C, 18 hours, read-out: minimum inhibitory concentration (M.I.C.)
Description: as §1

Salmonella typhosa T-63 = experiment: M.I.C. by standard serial dilution method; format: cell-based; conditions: Salmonella enterica, 18 h, read-out: minimum inhibitory concentration (M.I.C.)
Description: as §1

Sarcina lutea PCl 1001 = experiment: M.I.C. by standard serial dilution method; format: cell-based; conditions: Micrococcus luteus, PCL1001, nutrient agar, 37° C, 18 hours, read-out: minimum inhibitory concentration (M.I.C.)
Description: as §1

[18] = test system: Staphylococcus aureus FDA 209P; experiment: M.I.C. by standard serial dilution method; format: cell-based; conditions: FDA209P, S. aureus FDA 209P, nutrient agar, 37° C, 18 hours, read-out: minimum inhibitory concentration (M.I.C.)
Description: as §1

NC[C@H]1O[C@H](O[C@H]2[C@H](O)[C@@H](O[C@H]3O[C@H](CO)[C@@H](O)[C@H](N)[C@H]3O)[C@H](N)C[C@@H]2N)[C@H](N)C[C@@H]1O [3'-deoxykanamycin B]
antibacterial activity against resistant bacteria [1]: high antibacterial activity against the above-mentioned resistant bacteria

NCC[C@H](O)C(=O)N[C@@H]1C[C@H](N)[C@@H](O[C@H]2O[C@H](CN)[C@@H](O)C[C@H]2N)[C@H](O[C@@H]2O[C@H](CO)[C@@H](O)[C@H]2O)[C@H]1O [Compound No. 5, 1-N-((S)-4-amino-2-hydroxybutyryl)-3'-deoxy-5-O-β-D-ribofuranosylneamine]
MIC (Bacillus subtilis B-558): < 0.2 µg/mL | MIC [2]: 1.56 µg/mL (≈ 2.89 µM) | MIC [3]: 0.78 µg/mL (≈ 1.45 µM) | MIC [4]: 0.39 µg/mL (≈ 0.723 µM) | MIC [5]: 0.2 µg/mL (≈ 0.371 µM) | MIC [6]: 0.78 µg/mL (≈ 1.45 µM) | MIC [7]: 0.39 µg/mL (≈ 0.723 µM) | MIC [8]: 1.56 µg/mL (≈ 2.89 µM) | MIC [9]: 0.39 µg/mL (≈ 0.723 µM) | MIC (Escherichia coli K-12): 0.2 µg/mL (≈ 0.371 µM) | MIC (Escherichia coli NIHJ): 0.78 µg/mL (≈ 1.45 µM) | MIC [10]: 0.39 µg/mL (≈ 0.723 µM) | MIC [11]: 0.78 µg/mL (≈ 1.45 µM) | MIC [12]: < 0.2 µg/mL | MIC (Proteus rettgeri GN 311): 3.12 µg/mL (≈ 5.78 µM) | MIC (Proteus rettgeri GN 466): 0.78 µg/mL (≈ 1.45 µM) | MIC [13]: 12.5 µg/mL (≈ 23.2 µM) | MIC [14]: 3.12 µg/mL (≈ 5.78 µM) | MIC [15]: > 100 µg/mL | MIC [16]: 25 µg/mL (≈ 46.3 µM) | MIC [17]: 25 µg/mL (≈ 46.3 µM) | MIC (Salmonella typhosa T-63): 0.39 µg/mL (≈ 0.723 µM) | MIC (Sarcina lutea PCl 1001): 25 µg/mL (≈ 46.3 µM) | MIC [18]: 0.39 µg/mL (≈ 0.723 µM)

NC[C@H]1O[C@H](O[C@H]2[C@H](O[C@@H]3O[C@H](CO)[C@@H](O)[C@H]3O)[C@@H](O)[C@H](N)C[C@@H]2N)[C@H](N)C[C@@H]1O [3'-deoxyribostamycin]
antibacterial activity against resistant bacteria [1]: high antibacterial activity against the above-mentioned resistant bacteria

NCCC(O)C(=O)N[C@@H]1C[C@H](N)[C@@H](O[C@H]2O[C@H](CN)CC[C@H]2N)[C@H](O)[C@H]1O[C@H]1O[C@H](CO)[C@@H](O)[C@H](N)[C@H]1O (some centres unmarked) [1-N-(4-amino-2-hydroxybutyryl)-DKB]
antibacterial activity against resistant bacteria [1]: active against the kanamycin-resistant bacteria

NCC(O)C(=O)N[C@@H]1C[C@H](N)[C@@H](O[C@H]2O[C@H](CN)[C@@H](O)[C@H](O)[C@H]2N)[C@H](O)[C@H]1O[C@H]1O[C@H](CO)[C@@H](O)[C@H](N)[C@H]1O (some centres unmarked) [1-N-isoserylkanamycin B]
antibacterial activity against resistant bacteria [1]: active against the kanamycin-resistant bacteria

NCCC(O)C(=O)N[C@@H]1C[C@H](N)[C@@H](O[C@H]2O[C@H](CN)[C@@H](O)[C@H](O)[C@H]2O)[C@H](O)[C@H]1O[C@H]1O[C@H](CO)[C@@H](O)[C@H](N)[C@H]1O (some centres unmarked) [1-N-(4-amino-2-hydroxybutyryl)-kanamycin]
antibacterial activity against resistant bacteria [1]: active against the kanamycin-resistant bacteria
